{
  "source": "patent US20090259167A1",
  "about": "“METHODS AND COMPOSITIONS FOR DOSE-DEPENDENT PHOTODYNAMIC THERAPY OF DISORDERS” (THE GENERAL HOSPITAL CORPORATION, priority 2008, published 2009)",
  "key": {"[1]": {"tested_on": "porphyrin accumulation in skin", "experiment": "Digital fluorescence gross photography of porphyrin accumulation after intradermal ALA", "assay_type": "in vivo, Yorkshire swine", "text": "(§1) Three female domestic Yorkshire swine weighing 30 to 50 kg were used in the study, which was approved by the MGH Institutional Subcommittee for Research Animal Care. Porcine and human skin have similar histology and physiology, with notable differences. Pigs have smaller sebaceous glands and a thicker dermis. However their thick stratum corneum, lack of fur and metabolism of topical or injected ALA are similar to humans (Meyer 1996), (de Blois, Thissen et al. 2001).\n(§2) 5-Aminolevulinic acid hydrochloride from Biosynth International Inc. (Naperville, Ill., USA) was diluted in normal saline (0.9% Sodium Chloride, Hospira, Inc., Illinois, USA) into different concentrations. ALA solutions were titrated in halves from 1.000% to 0.0005%. Osmolarity was not corrected. ALA solution pH varied with concentration from acidic to neutral (1.000%≈pH 1; 0.500%≈pH 3; 0.250 to 0.008%≈pH 5; 0.004 to 0.0005%≈pH 7). Normal saline was used as a control (pH=7). […] In this study, ALA solutions were not buffered because buffering can induce a delay in PpIX formation (Bech et al. 1997). Unbuffered solutions were prepared immediately before intradermal injection. A volume of 0.05-cc/cm^2 skin area was injected at a depth of 2 to 4 mm, using a special 4 mm-long 30 gauge needle (TSK STEiJECT, Toshigi-ken, Japan). The beveled outlet of this needle covers the distal 1 mm near its tip.\nFor each concentration, 12 repetitions were performed for statistical validation. One centimeter separated each site of application from others at the same concentration. After ALA administration, the skin was occluded with plastic sheeting (Saran wrap) and covered with aluminum foil, to avoid light exposure during a 3-hour period for ALA metabolism.\n(§3) Each animal's flanks were cleansed, clipped of hair, cleansed and rinsed again, dried with a towel, mapped and divided into 4 cm×7 cm rectangular areas for the test spots. Each test area received an injection of a given ALA concentration, with appropriate control sites, which received either no treatments, ALA alone, or light exposure alone. After the ALA injections, the skin surface was wiped clean again. Three hours after ALA administration, each test area was used for repeated measurements of (1) digital fluorescence photography to document the gross distribution of porphyrin synthesis; and (2) 8-mm skin biopsies obtained from at least 2 sites for each condition prior to light exposure, for evaluation of porphyrin distribution by fluorescence microscopy. After the 3-hour-incubation skin biopsies, red light exposures were performed using a 635 nm LED array (Omnilux, Photo Therapeutics, Inc, Cheshire, UK), delivered at 100 mW/cm^2 irradiance. Biopsies were taken from the control sites at the same times as from test sites, to control for the unlikely possibility that the small amount of ALA injected would cause a systemic level sufficient to stimulate remote synthesis of porphyrins. Measurements and biopsies were repeated after 24 hours, prior to euthanasia.\nFluorescence photography was performed using a 420 nm bandwidth excitation filter, and >600 nm long pass emission filter mounted on a digital camera (Nikon D70, Nikon Corporation, Tokyo, Japan) with fixed-focus and fixed-field with 10 cm field of view. A fluorescent tape (Small Flags—Pink, Redi-Tag Corporation, Cypress, Calif., USA) was attached to the fixed-field area to compare the fluorescence produced from the skin. Fluorescence photography was performed at baseline, after 3 hours of incubation, immediately after red light exposure, and 24 hours after the application of the drug for each ALA application and control test sites.\nEvery gross fluorescent photograph was analyzed using the WCIF—Image J 1.37c software—Wayne Rasband National Institutes of Health, USA. In this software, pixel analysis is transformed into numeric values. […]"}, "[2]": {"tested_on": "porphyrin accumulation in cutaneous structures", "experiment": "Fluorescence microscopy of fresh-frozen skin biopsies for porphyrin (PpIX) distribution", "assay_type": "in vivo, Yorkshire swine", "text": "as §1, §2, §3\n(§4) From each experimental skin area, a series 8 mm punch biopsies were taken and immediately split vertically in half with a razor blade. For each biopsy, half was prepared as a fresh-frozen specimen to localize the PpIX accumulation by fluorescence microscopy. The other half was processed for routine hematoxylin-eosin (H&E) staining. At baseline (B0), after 3 hours of incubation (B1), and after 24 hours (B2) a biopsy was performed in each area. Biopsies for fluorescence microscopy were also taken from sites receiving light exposure, just after the light was administered. Frozen sections were cut into 15 μm thick samples and observed using fluorescence microscopy Zeiss Axiophot, Carls Zeiss MicroImaging GmbH, Gottinger, Germany at 10× magnification; samples were also imaged by confocal microscopy (True Confocal Scanner—Leica TCSNT, Leica Mikroscopie und Systeme GmbH, Heidelberg, Germany) at 40× magnification. Routine H&E histology was performed to analyze PDT effect within the skin structures. Biopsy sites were separated from each other by at least 1 cm. […]"}, "[3]": {"tested_on": "skin", "experiment": "Clinical examination of inflammatory response to ALA-PDT (635 nm red light)", "assay_type": "in vivo, Yorkshire swine", "text": "as §1, §2, §3\nClinical examination and grading of cutaneous responses were performed before, during and 1 hour after the end of the last red light exposure. This is sufficient time for an acute inflammatory response to develop. The following day, before euthanasia, final clinical evaluation was performed. Inflammatory response was graded from 0 to 3 for each site, where 0 represents no reaction; 1, mild (any redness or edema); 2, moderate (prominent redness and/or edema) and 3, severe reaction (signs of necrosis, blistering, purpura)."}, "[4]": {"tested_on": "skin structures", "experiment": "Histopathology (H&E) of skin structures 24 hours after ALA-PDT", "assay_type": "in vivo, Yorkshire swine", "text": "as §1, §2, §3, §4"}, "[5]": {"experiment": "pH and stability of ALA solutions", "assay_type": "physicochemical", "settings": "unbuffered", "description": "as §2"}, "[6]": {"settings": "depending on the pH and the concentration of the solution; cited from earlier work"}, "[7]": {"settings": "0.5% injected ALA-PDT, 24 hours"}},
  "note": "Entries after “also recorded” stand apart in the source; their conditions may differ.",
  "data": [
    {"smiles": "Cl.NCC(=O)CCC(=O)O", "note": "[ALA, 5-Aminolevulinic acid hydrochloride]", "values": [
      {"measurement": "porphyrin accumulation by gross fluorescence", "setting": "[1]; 2-4 mm deep injected ALA lower than 0.0005%", "value": "low but detectable level of porphyrin accumulation"},
      {"measurement": "lowest injected ALA concentration with positive fluorescence in photographs", "setting": "[1]; 3 hours after intradermal administration, solutions 1.0% to 0.0005%", "value": 0.004, "unit": "%"},
      {"measurement": "lowest injected ALA concentration with statistically significantly increased fluorescence vs uninjected control sites (pixel value analysis)", "setting": "[1]; 3 hours incubation", "value": 0.004, "unit": "%"},
      {"measurement": "fluorescence compared to control and light only sites", "setting": "[1]; ALA less than or equal to 0.002%, p≦2×10^−5", "value": "significant fluorescence"},
      {"measurement": "fluorescence immediately after red light PDT", "setting": "[1]; all sites, 635 nm", "value": "no fluorescence"},
      {"measurement": "porphyrin accumulation by gross fluorescence", "setting": "[1]; injected ALA greater than 0.002%", "value": "dose-dependent porphyrin accumulation"},
      {"measurement": "lowest injected ALA concentration inducing porphyrin accumulation", "setting": "[2]; down to and including", "value": 0.0005, "unit": "%"},
      {"measurement": "injected ALA concentration at which epithelial skin structures (hair follicles, sebaceous glands, epidermis) showed fluorescence", "setting": "[2]; in vivo", "value": "≥ 0.25", "unit": "%"},
      {"measurement": "subcutaneous fat fluorescence", "setting": "[2]; injected ALA 0.0005%", "value": "present"},
      {"measurement": "vessel fluorescence", "setting": "[2]; injected ALA 0.50%", "value": "Some vessels also fluoresced"},
      {"measurement": "epidermal fluorescence", "setting": "[2]; injected ALA 1.0% and 0.5%, prior to light", "value": "Full thickness epidermal fluorescence"},
      {"measurement": "fluorescence of superficial and deep hair follicles", "setting": "[2]; injected ALA 1% to 0.03%", "value": "mostly present"},
      {"measurement": "epidermal fluorescence", "setting": "[2]; injected ALA below 0.06%", "value": "negative"},
      {"measurement": "stratum corneum fluorescence", "setting": "[2]; injected ALA below 0.06%", "value": "positive fluorescence"},
      {"measurement": "localisation of porphyrin fluorescence", "setting": "[2]; injected ALA ≦0.002%, 2-4 mm deep", "value": "limited to the area where the drug was injected"},
      {"measurement": "eccrine gland porphyrin fluorescence", "setting": "[2]; injected ALA ≧0.03%", "value": "strong porphyrin fluorescence"},
      {"measurement": "superficial fat fluorescence", "setting": "[2]; injected ALA, all concentrations tested, fading with dilution", "value": "strong fluorescence"},
      {"measurement": "lowest ALA concentration with sebaceous gland fluorescence", "setting": "[2]; injected, prior to light", "value": 0.50, "unit": "%"},
      {"measurement": "lowest ALA concentration with positive eccrine gland fluorescence", "setting": "[2]; injected, less intense but still positive", "value": 0.005, "unit": "%"},
      {"measurement": "lowest injected ALA concentration with clinical reaction (mild erythema)", "setting": "[3]; 24 hours after PDT", "value": 0.016, "unit": "%"},
      {"measurement": "Nikolski sign", "setting": "[3]; all sites", "value": "negative"},
      {"measurement": "clinical response after light exposure", "setting": "[3]; injected ALA 0.0005% (lowest concentration)", "value": "no significant clinical residuum"},
      {"measurement": "clinical response after PDT", "setting": "[3]; injected ALA 0.25%-1.00%, necrosis generally after 24 hours", "value": "extensive purpura with skin necrosis"},
      {"measurement": "gross skin reaction", "setting": "[3]; injected ALA and light exposure, after 24 hours", "value": "much more uniform gross skin reaction"},
      {"measurement": "clinical response during red light irradiation", "setting": "[3]; injected ALA from 0.016% to 1.0%", "value": "intense vasospasm"},
      {"measurement": "clinical response after light exposure", "setting": "[3]; injected ALA less or equal to 0.016%, light 3 hours after injection", "value": "only erythematous macules near each injection puncture site"},
      {"measurement": "reaction to ALA injection before light exposure", "setting": "[3]; intradermal injection, 3-hour incubation", "value": "mild transient “bleb” papule"},
      {"measurement": "skin response", "setting": "[3]; topical 20% ALA and light exposure, after 24 hours", "value": "non-uniform skin response, with much greater inflammation around hair follicles"},
      {"measurement": "fat septae damage", "setting": "[4]; 0.002% injected ALA-PDT", "value": "Massive fat septae necrosis"},
      {"measurement": "damage to hair follicle, adnexal glands and fat", "setting": "[4]; 0.5% injected ALA-PDT", "value": "Non-selective destruction"},
      {"measurement": "epidermis changes", "setting": "[4]; [7]", "value": "no relevant changes"},
      {"measurement": "superficial vessel findings", "setting": "[4]; [7]", "value": "superficial vessel inflammation with blood stagnation"},
      {"measurement": "eccrine gland damage", "setting": "[4]; all ALA concentrations, more so 1% to 0.06%", "value": "Massive eccrine gland necrosis"},
      {"measurement": "fat damage", "setting": "[4]; all injected ALA concentrations", "value": "observed with all concentrations"},
      {"measurement": "epidermis reaction", "setting": "[4]; all samples, 24 hours after PDT", "value": "little or no reaction"},
      {"measurement": "vascular destruction in deep vessels of the fat septae", "setting": "[4]; injected ALA 0.0005% (most diluted)", "value": "maximal vascular destruction"},
      {"measurement": "fat damage intensity", "setting": "[4]; injected ALA 0.0005-0.016%", "value": "more intense"},
      {"measurement": "fat effect at very low concentrations", "setting": "[4]; injected ALA 0.016 to 0.0005% (≦0.016%), 2-4 mm deep, hydrochloride", "value": "localized fat necrosis without clinical evidence of inflammation; also recorded: targeted fat and deep vessels without clinical inflammation"},
      {"measurement": "superficial fat inflammation", "setting": "[4]; injected ALA 0.06%", "value": "mild inflammation"},
      {"measurement": "eccrine gland selectivity of damage", "setting": "[4]; injected ALA 0.06%, hydrochloride", "value": "selective destruction of some eccrine glands; also recorded: Selective eccrine gland damage; also recorded: selectively targeted eccrine glands; also recorded: Selective reaction of eccrine glands"},
      {"measurement": "vascular findings in superficial and deep vessels", "setting": "[4]; injected ALA 0.25-1.00%, 24 hours after PDT", "value": "extensive perivascular and vascular mixed inflammatory cell infiltrates"},
      {"measurement": "vascular PDT reaction", "setting": "[4]; injected ALA ≧0.25% with high fluence red light", "value": "potent vascular PDT reaction"},
      {"measurement": "apocrine gland damage", "setting": "[4]; injected ALA-PDT", "value": "signs of some preferential damage"},
      {"measurement": "perifollicular inflammation", "setting": "[4]; mainly injected ALA 1%-0.016%", "value": "mild perifollicular inflammation"},
      {"measurement": "ALA solution pH", "setting": "[5]; 0.004 to 0.0005% ALA in normal saline", "value": "~7"},
      {"measurement": "ALA solution pH", "setting": "[5]; 0.250 to 0.008% ALA in normal saline", "value": "~5"},
      {"measurement": "ALA solution pH", "setting": "[5]; 0.500% ALA in normal saline", "value": "~3"},
      {"measurement": "ALA solution pH", "setting": "[5]; 1.000% ALA in normal saline", "value": "~1"},
      {"measurement": "stability of aqueous solutions", "setting": "[6]", "value": "unstable over long periods"}
    ]}
  ]
}
